Assay results as given in patent publication US20240262845A1, “PYRIDINIUM SALTS, METHODS OF MAKING, AND METHODS OF USE” (UNIVERSITY OF WYOMING, priority 2023, published 2024).
Counter-ions that a name gives are not always drawn.

How the values were obtained:
[1] = target: Exenatide (Heloderma suspectum, UniProt P26349); experiment: Photochemical labeling of exenatide with pyridinium salt (General Procedure B, LC/MS); type: biochemical; settings: trypsin digest
Protocol: General Procedure B: Photochemical Irradiation of Peptides and Proteins: To a 2 mL Pyrex LC/MS vial (Thermo model #03-391-39) were sequentially added solutions containing the desired biomolecule, glutathione (GSH), pyridinium salt, and ammonium acetate (NH4OAc). The resulting solution was diluted to a final volume of 500 μL and then sparged using nitrogen for a minimum of 30 minutes prior to irradiation. The actively sparging solution was then placed in an EvoluChem™ PhotoRedOx Box photoreactor that was equipped with a Kessil, PR160 427 nm LED Lamp and was then irradiated (100% lamp intensity) for the designated time at room temperature while maintaining active sparging. The resultant reaction mixture was then analyzed directly by LC/MS. […]
Labeling of Exenatide with Pyridinium Salt 2a (Exenatide-2a Conjugate). […] The resulting reaction mixture was directly analyzed by LC/MS using method A and was estimated to have proceeded in 70% conversion. […]
General Trypsin Digest Protocol B: For non-cystine bridged labeled proteins, a standard trypsin digest was modified as follows. […] The digested mixture was analyzed directly by LC/MS and MS/MS using method C.
Exenatide-2a Conjugate. […] The digested mixture was analyzed directly by LC-MS and MS/MS. […]

[2] = target: T1, thioredoxin (Escherichia coli, UniProt P0AA25); experiment: Photochemical labeling of thioredoxin with pyridinium salt (General Procedure B, LC/MS); type: biochemical; settings: trypsin digest
T1 construct: purchased Sigma Aldrich; host or cells: E. coli
T1 sequence (P0AA25 whole entry): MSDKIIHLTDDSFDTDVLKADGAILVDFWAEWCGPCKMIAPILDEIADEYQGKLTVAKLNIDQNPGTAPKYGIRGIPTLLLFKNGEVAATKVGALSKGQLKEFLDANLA
Protocol: General Procedure B: Photochemical Irradiation of Peptides and Proteins: To a 2 mL Pyrex LC/MS vial (Thermo model #03-391-39) were sequentially added solutions containing the desired biomolecule, glutathione (GSH), pyridinium salt, and ammonium acetate (NH4OAc). The resulting solution was diluted to a final volume of 500 μL and then sparged using nitrogen for a minimum of 30 minutes prior to irradiation. The actively sparging solution was then placed in an EvoluChem™ PhotoRedOx Box photoreactor that was equipped with a Kessil, PR160 427 nm LED Lamp and was then irradiated (100% lamp intensity) for the designated time at room temperature while maintaining active sparging. The resultant reaction mixture was then analyzed directly by LC/MS. Analysis of labeling outcomes using LC/MS was performed either by extracted ion chromatogram intensities (method A) or by integrating the area under the peaks associated with peptide content (method B). These values were totaled, and estimated percentages were assigned according to relative intensities of peaks or ion counts.
Labeling of Thioredoxin with Pyridinium Salt 2a (Thioredoxin-2a Conjugate). […] The reaction mixture was directly analyzed by LC/MS using method A and was estimated to have proceeded with 93% conversion and a 14.5:1 mono:di labeled ratio and 3% glutathionylation of all protein content. […]

Sequence of Exenatide (P26349 48-86 limits assumed): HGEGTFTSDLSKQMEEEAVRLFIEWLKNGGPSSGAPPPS

## COC(=O)N(C)[n+]1c(C)cc(-c2ccc3cc(OC)ccc3c2)cc1C [pyridinium salt 2a, 1-((methoxycarbonyl)(methyl)amino)-4-(6-methoxynapthalen-2-yl)-2,6-dimethylpyridin-1-ium tetrafluoroborate]
[1]
  Modified Trp: Trp-025
[2]
  Modified Trp: Trp-31
